From patent US7022663B2 (Yeda Research and Development Co., Ltd., priority 2000, dated 2006)
Several values for one entry are separate records, joined by “and”; a condition that tells them apart may be missing. Equal entries are not always repeated. Where two headings read alike, the source gives them in different places.

Tests used:
[1] = tested on: Th2; conditions: cited from earlier work
[2] = tested on: IL-2; conditions: cited from earlier work
[3] = tested on: IFN-γ; conditions: cited from earlier work
[4] = tested on: Chronic-relapsing EAE
From the text: Chronic—relapsing EAE was induced in female Biozzi mice by the injection of mouse spinal cord homogenate (MSCH) in CFA, following by re-injection of the encephalitogen one week later, in the same manner.

[5] = tested on: IL-2; conditions: oral, enteric coated capsules, MS patients
[6] = tested on: EAE
From the text: EAE was induced in Lewis rats by the injection of guinea pig spinal cord homogenate in CFA into the hind legs.

[7] = tested on: exacerbating-remitting multiple sclerosis; conditions: daily subcutaneous injections, phase III; cited from earlier work
[8] = tested on: T cell; conditions: Aharoni et al. 1997; cited from earlier work
[9] = tested on: EAE; conditions: monkey, in vivo
[10] = tested on: EAE; conditions: enteric-coated tablets
From the text: As in Example 3B, observation began on day 8 and continued until the conclusion of the experiment, which, in this case, was day 57. […] EAE-related neurological signs appeared between day 14 and 54 as specified in Table 9. Animals were sacrificed when they reached score 4.

[11] = tested on: experimental allergic encephalomyelitis (EAE); conditions: cited from earlier work
[12] = tested on: Experimental allergic Encephalomyelitis (EAE)
Method: Rhesus monkeys were fed with the enteric coated capsules. 5 feedings before disease induction and 5 feedings after disease induction, on alternate days. Experimental allergic Encephalomyelitis (EAE) was induced by injecting 8 mg myelin basic protein (MBP) in complete Freund's adjuvant (CFA) intra-dermally into the leg. EAE symptoms were evaluated on the following scale:
Evaluation of EAE clinical signs

[13] = tested on: IL-10; conditions: oral, enteric coated capsules, MS patients
[14] = tested on: relapsing-remitting form of EAE; assay: Induction of relapsing-remitting EAE in Cynamologus monkeys by MBP in CFA; assay type: in vivo
Method: A relapsing-remitting form of EAE was induced by the injection of emulsified MBP in CFA containing 3 mg/ml of Mycobacterium Tuberculosis (MT), intradermally into right & left footpads.
Observation was initiated on day 8.

[15] = oral solution daily from day 16
[16] = all dose groups, daily gavage of solution

L-glutamic acid polymer with L-alanine, L-lysine and L-tyrosine, acetate (salt) [Copolymer 1]
beneficial Th2 anti-inflammatory response [1]: induced | pro-GVHD IL-2 cytokine secretion [2]: prevented | pro-GVHD IFN-γ cytokine secretion [3]: prevented | EAE clinical symptoms of the second relapse ([4]; oral solution 0.5, 2.5, 12.5 mg/kg/day from day 16, dose-dependent): reduced | incidence of second relapse, severity of symptoms, duration of relapse [4, 15]: suppressive effect was demonstrated in all parameters checked | most effective dose [4, 15]: 12.5 mg/kg | change of IL-2 [5]: decrease | % of sick rats [6, 16]: reduced | disease duration [6, 16]: reduced | disease onset [6, 16]: delayed | severity of disease (mean score and mean maximal score) [6, 16]: reduced | effect on EAE ([6]; solution 0.1-10 mg/kg by gavage every day from induction to day 24): inhibited | progression of disability [7]: slow | relapse rate [7]: reduce | T cell proliferation in response to host cell [8]: inhibited | Daily Clinical Score [9]: 2 | Incidence [9]: 3/3 and 1/3 | Mean Disease Onset Day [9]: 14.33 and 18.33 and 23 | most effective dosage [9]: 10 mg | pattern of disease compared with placebo group [9]: no obvious improvement | Incidence ([10]; 10 mg group): 3/3 | Mean Disease Onset Day ([10]; 10 mg group): 30 | Mean Maximal Score ([10]; 10 mg group): 2.33 | Mean Score ([10]; 10 mg group): 1.3 ± 0.56 | Incidence ([10]; 20 mg group): 3/3 | Mean Disease Onset Day ([10]; 20 mg group): 30 | Mean Maximal Score ([10]; 20 mg group): 2.33 | Mean Score ([10]; 20 mg group): 1.6 ± 0.53 | effect on incidence of the disease ([10]; 10 and 20 mg): does not change the incidence of the disease | most effective dosage ([10]; 10 and 20 mg tested, confirms Example 3B): 10 mg | effect on EAE ([11]; induced by various encephalitogens including MSCH, MBP, PLP, MOG): suppress | activity by injection ([11]; injected subcutaneously, intra-peritoneally, intravenously or intramuscularly): active | signs of EAE ([12]; 20 mg in enteric coated capsules, 5 feedings before and 5 after induction on alternate days, first study (FIG. 1), one animal): did not develop any signs of disease till day 60 | course of EAE upon treatment with 20 mg capsules ([12]; animal first treated with 1 mg capsules, then 20 mg enteric coated capsules): healed completely | outcome of EAE ([12]; second study (FIG. 2), capsules not gastro-protective (opened in the stomach)): died from the disease | protection from EAE ([12]; second study (FIG. 2), enteric coated capsules 1, 10 and 20 mg): fully protected from EAE | change of IL-10 [13]: increase

B1: MBP: myelin basic protein, natural component of the myelin sheath, injected in CFA to induce EAE (protein, UniProt P02686 1-304, looked up)
Myelin basic protein: MGNHAGKRELNAEKASTNSETNRGESEKKRNLGELSRTTSEDNEVFGEADANQNNGTSSQDTAVTDSKRTADPKNAWQDAHPADPGSRPHLIRLFSRDAPGREDNTFKDRPSESDELQTIQEDSAATSESLDVMASQKRPSQRHGSKYLATASTMDHARHGFLPRHRDTGILDSIGRFFGGDRGAPKRGSGKDSHHPARTAHYGSLPQKSHGRTQDENPVVHFFKNIVTPRTPPPSQGKGRGLSLSRFSWGAEGQRPGFGYGGRASDYKSAHKGFKGVDAQGTLSKIFKLGGRDSRSGSPMARR
Daily Clinical Score ([14]; Female Z-920, dose 2.5 mg, columns = days 14-32 after induction): 3 and 5 | Daily Clinical Score ([14]; Male Z-701, dose 10 mg, columns = days 14-32): 0 | Daily Clinical Score ([14]; Male Z-1669, dose 5 mg, columns = days 14-32): 0
